Each block holds one compound with its values, some of them ahead of it.
How the values were obtained:
[1] = cited from earlier work
[2] = test system: MM.1S xenograft; experiment: MM xenograft mouse model, single agent, 18 days; assay type: in vivo, NOD/SCID mice; details: for body weight versus control: 18 days treatment
Method: (§1) Tumor size was measured every other day using calipers, and tumor volume was calculated with the formula: V = 0.5 (a × b^2), where a is the long diameter of the tumor and b is the short diameter of the tumor. Mice were killed when the tumor reached 2 cm^3 or was ulcerated. Tumor growth was evaluated from the first day of treatment until the end of experiment.

[3] = test system: RPMI-8226 xenograft; experiment: MM xenograft mouse model, single agent, 18 days; assay type: in vivo, NOD/SCID mice; details: for body weight versus control: 18 days treatment
Method: as §1

[4] = molecular target: hERG (Homo sapiens, UniProt Q12809); details: cited from earlier work
Chain of hERG (Q12809 whole entry): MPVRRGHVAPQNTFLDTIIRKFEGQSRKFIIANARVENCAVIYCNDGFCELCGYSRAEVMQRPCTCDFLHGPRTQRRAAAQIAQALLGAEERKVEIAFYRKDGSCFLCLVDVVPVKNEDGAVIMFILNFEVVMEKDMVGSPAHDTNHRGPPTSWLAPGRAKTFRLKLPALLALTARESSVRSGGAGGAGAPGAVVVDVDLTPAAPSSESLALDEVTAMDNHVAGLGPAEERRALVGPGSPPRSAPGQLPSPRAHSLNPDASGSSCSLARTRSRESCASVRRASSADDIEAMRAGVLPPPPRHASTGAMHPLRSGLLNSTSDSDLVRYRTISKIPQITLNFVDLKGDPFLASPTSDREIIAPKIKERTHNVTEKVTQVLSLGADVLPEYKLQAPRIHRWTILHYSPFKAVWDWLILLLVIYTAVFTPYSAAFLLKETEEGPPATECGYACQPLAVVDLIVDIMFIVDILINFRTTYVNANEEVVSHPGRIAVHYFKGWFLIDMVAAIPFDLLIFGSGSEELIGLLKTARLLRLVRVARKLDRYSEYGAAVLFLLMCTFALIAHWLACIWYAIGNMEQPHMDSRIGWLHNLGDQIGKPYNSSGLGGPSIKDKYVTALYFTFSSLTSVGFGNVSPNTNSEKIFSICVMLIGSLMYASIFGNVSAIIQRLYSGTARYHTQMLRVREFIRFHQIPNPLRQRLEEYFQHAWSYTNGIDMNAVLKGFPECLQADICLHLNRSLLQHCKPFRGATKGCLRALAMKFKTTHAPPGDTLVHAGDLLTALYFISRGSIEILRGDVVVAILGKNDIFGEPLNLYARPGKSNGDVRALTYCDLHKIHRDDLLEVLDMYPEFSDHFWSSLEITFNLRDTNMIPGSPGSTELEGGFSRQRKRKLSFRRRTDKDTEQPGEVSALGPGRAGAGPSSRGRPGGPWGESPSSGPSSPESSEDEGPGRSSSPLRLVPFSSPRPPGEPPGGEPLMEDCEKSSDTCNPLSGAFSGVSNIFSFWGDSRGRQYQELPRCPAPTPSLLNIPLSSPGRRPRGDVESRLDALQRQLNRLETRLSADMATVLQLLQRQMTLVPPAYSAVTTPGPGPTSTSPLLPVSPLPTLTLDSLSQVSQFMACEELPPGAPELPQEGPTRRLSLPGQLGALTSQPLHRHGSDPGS

[5] = molecular target: SIRT1 (Homo sapiens, UniProt Q96EB6); experiment: non-HDAC enzyme inhibition selectivity; assay type: biochemical; details: read-out: Inhibition rate (%) (200 μM)
Chain of SIRT1 (Q96EB6 whole entry, species assumed): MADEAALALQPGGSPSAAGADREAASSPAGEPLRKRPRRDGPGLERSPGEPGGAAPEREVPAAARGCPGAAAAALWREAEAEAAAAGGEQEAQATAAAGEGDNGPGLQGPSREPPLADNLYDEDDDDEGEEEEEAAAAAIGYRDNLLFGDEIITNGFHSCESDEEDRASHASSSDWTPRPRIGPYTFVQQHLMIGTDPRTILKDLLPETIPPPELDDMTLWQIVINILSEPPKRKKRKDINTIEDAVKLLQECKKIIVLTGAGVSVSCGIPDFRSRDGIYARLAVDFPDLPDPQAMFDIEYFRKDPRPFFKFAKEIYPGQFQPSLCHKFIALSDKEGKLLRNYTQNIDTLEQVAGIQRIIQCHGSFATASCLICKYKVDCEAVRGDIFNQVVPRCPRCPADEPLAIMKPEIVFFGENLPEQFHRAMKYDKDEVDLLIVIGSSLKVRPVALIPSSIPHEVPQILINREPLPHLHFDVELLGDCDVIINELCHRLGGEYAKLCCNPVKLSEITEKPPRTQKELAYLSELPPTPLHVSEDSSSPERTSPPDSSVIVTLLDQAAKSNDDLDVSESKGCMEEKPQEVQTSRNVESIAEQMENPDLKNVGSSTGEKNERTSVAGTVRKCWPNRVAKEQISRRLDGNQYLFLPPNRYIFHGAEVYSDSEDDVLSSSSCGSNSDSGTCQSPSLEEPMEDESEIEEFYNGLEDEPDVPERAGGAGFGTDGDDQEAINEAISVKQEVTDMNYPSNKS

[6] = molecular target: SIRT3 (Homo sapiens, UniProt Q9NTG7); experiment: non-HDAC enzyme inhibition selectivity; assay type: biochemical; details: read-out: Inhibition rate (%) (200 μM)
Chain of SIRT3 (Q9NTG7 whole entry, species assumed): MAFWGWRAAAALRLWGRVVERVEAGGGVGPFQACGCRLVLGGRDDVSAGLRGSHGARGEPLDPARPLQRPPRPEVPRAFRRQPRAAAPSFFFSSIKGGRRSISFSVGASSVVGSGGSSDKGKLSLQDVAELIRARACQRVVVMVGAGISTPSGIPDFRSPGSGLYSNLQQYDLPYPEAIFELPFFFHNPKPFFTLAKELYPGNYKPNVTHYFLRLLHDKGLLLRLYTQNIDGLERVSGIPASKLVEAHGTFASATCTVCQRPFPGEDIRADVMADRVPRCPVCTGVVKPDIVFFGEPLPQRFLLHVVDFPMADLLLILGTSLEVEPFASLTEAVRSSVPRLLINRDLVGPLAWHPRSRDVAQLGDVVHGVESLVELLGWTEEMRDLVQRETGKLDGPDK

[7] = molecular target: Syk (Homo sapiens, UniProt P43405); experiment: non-HDAC enzyme inhibition selectivity; details: read-out: Inhibition rate (%) (200 μM)
[8] = molecular target: AuroraA (Homo sapiens, UniProt O14965); experiment: non-HDAC enzyme inhibition selectivity; details: read-out: Inhibition rate (%) (200 μM)
Chain of AuroraA (O14965 whole entry): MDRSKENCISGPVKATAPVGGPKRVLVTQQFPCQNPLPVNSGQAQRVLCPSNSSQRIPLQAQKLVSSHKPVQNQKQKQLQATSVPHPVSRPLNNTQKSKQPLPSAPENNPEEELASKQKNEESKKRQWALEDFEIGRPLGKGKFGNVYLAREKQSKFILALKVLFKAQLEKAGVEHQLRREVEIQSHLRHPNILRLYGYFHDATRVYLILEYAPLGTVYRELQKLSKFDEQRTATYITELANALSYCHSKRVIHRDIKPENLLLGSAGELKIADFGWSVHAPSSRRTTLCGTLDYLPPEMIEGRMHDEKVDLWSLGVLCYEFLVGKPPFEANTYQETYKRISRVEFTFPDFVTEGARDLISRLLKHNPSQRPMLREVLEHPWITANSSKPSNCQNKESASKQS

[9] = test system: MM.1S tumor tissues; experiment: PD analysis of acetylation in tumor tissue by Western blotting; assay type: in vivo, NOD/SCID mice; details: 75 mg·kg^-1·d^-1 bid, 1 h after last dose
Method: For PD analysis, mice were killed 1 h after treatment, tumor tissues were collected for WB analysis of acetylated α-tubulin and acetylated histone H3 levels, as before indicated.

[10] = molecular target: DPP4 (Homo sapiens, UniProt P27487); experiment: non-HDAC enzyme inhibition selectivity; details: read-out: Inhibition rate (%) (200 μM)
Chain of DPP4 (P27487 whole entry, species assumed): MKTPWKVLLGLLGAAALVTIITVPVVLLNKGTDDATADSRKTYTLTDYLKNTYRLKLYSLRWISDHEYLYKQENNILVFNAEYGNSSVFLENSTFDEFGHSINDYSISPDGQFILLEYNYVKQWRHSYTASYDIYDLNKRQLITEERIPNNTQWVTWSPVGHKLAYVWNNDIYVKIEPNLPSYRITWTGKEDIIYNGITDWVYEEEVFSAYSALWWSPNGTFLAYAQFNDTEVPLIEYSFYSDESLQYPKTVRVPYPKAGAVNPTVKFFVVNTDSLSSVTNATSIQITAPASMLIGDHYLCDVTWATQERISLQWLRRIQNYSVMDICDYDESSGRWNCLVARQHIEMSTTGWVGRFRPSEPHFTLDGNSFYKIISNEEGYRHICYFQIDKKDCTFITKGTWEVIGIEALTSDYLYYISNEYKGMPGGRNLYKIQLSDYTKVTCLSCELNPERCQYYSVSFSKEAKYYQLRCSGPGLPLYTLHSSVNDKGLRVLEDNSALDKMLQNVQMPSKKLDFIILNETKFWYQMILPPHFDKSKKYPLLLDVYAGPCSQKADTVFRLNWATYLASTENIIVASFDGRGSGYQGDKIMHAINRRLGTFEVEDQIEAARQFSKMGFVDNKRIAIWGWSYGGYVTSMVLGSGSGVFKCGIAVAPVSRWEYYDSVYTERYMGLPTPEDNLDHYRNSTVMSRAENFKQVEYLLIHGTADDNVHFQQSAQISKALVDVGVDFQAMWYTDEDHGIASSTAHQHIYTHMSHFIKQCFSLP

[11] = molecular target: T1, PTP1B (Homo sapiens, UniProt P18031); experiment: non-HDAC enzyme inhibition selectivity; details: read-out: Inhibition rate (%) (200 μM)
T1 sequence (P18031 1-435): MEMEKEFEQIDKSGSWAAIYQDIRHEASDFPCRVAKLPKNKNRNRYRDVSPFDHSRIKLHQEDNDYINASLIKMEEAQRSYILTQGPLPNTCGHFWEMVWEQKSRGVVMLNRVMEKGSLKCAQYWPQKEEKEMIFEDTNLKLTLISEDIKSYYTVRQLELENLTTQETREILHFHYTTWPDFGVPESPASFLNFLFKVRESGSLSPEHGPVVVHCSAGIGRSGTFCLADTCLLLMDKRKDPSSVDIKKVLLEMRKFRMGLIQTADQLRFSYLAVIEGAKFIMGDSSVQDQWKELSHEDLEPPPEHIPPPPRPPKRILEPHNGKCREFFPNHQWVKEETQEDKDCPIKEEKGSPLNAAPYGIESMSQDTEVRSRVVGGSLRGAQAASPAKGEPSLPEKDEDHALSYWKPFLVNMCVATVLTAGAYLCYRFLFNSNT

[12] = molecular target: MMP12 (Homo sapiens, UniProt P39900); experiment: non-HDAC enzyme inhibition selectivity; details: read-out: Inhibition rate (%) (200 μM)
Chain of MMP12 (P39900 106-470, species assumed): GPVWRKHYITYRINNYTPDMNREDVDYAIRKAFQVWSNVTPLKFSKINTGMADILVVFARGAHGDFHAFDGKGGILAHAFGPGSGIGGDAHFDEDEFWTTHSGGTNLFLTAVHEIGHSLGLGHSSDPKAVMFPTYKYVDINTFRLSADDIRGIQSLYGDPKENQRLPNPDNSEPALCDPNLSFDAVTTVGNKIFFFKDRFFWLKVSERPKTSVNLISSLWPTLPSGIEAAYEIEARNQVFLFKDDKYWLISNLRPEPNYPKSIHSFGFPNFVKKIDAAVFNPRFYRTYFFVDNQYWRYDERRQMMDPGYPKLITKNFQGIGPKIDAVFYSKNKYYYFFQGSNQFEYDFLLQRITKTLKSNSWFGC

[13] = molecular target: Braf (Homo sapiens, UniProt P15056); experiment: non-HDAC enzyme inhibition selectivity; details: read-out: Inhibition rate (%) (200 μM)
Chain of Braf (P15056 whole entry, species assumed): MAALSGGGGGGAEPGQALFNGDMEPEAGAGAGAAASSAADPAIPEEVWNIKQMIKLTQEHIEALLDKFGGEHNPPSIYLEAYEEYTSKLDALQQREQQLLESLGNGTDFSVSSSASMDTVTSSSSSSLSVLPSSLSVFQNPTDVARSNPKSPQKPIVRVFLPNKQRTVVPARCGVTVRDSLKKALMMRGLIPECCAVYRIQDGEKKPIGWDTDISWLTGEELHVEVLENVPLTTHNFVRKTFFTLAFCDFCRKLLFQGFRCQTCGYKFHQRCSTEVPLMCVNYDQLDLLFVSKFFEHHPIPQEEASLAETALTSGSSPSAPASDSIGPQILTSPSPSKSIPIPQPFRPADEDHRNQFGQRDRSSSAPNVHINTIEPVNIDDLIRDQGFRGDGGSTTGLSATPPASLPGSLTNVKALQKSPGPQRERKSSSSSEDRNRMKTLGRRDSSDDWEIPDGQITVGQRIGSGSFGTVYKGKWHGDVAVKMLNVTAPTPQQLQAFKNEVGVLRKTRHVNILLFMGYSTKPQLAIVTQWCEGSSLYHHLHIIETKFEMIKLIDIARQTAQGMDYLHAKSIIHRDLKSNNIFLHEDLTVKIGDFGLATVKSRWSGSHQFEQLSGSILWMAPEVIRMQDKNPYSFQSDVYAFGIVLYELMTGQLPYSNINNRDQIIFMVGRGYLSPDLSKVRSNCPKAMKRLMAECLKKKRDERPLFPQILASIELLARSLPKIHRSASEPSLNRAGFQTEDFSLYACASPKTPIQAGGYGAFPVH

[14] = molecular target: SIRT2 (Homo sapiens, UniProt Q8IXJ6); experiment: non-HDAC enzyme inhibition selectivity; assay type: biochemical; details: read-out: Inhibition rate (%) (200 μM)
Chain of SIRT2 (Q8IXJ6 whole entry, species assumed): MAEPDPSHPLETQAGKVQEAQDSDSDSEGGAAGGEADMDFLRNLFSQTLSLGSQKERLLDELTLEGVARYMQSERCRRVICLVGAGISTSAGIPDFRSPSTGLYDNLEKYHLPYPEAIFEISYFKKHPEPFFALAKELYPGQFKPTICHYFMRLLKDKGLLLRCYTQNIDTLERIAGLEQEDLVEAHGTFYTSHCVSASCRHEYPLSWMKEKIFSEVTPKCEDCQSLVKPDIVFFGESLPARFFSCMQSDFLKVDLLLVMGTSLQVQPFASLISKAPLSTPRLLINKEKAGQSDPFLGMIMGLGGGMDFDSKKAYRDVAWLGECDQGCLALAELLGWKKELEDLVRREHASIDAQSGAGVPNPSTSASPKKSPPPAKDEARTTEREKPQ

[15] = molecular target: T2, Caspase3 (Homo sapiens, UniProt P42574); experiment: non-HDAC enzyme inhibition selectivity; details: read-out: Inhibition rate (%) (200 μM)
T2 sequence (P42574 29-175 limits assumed): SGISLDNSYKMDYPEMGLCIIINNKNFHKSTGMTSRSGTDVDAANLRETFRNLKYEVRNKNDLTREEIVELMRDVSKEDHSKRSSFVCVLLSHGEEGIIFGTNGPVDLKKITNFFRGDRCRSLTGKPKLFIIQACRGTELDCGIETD
T2 sequence (P42574 176-277 limits assumed): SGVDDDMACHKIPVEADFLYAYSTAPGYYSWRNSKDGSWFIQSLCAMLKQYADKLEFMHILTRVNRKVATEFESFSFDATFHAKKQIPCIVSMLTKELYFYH

[16] = set-up: method as in PMID 19356036; details: rat and dog; cited from earlier work
[17] = molecular target: T3, PKCepsilon (Homo sapiens, UniProt Q02156); experiment: non-HDAC enzyme inhibition selectivity; details: read-out: Inhibition rate (%) (200 μM)
T3 sequence (Q02156 1-737): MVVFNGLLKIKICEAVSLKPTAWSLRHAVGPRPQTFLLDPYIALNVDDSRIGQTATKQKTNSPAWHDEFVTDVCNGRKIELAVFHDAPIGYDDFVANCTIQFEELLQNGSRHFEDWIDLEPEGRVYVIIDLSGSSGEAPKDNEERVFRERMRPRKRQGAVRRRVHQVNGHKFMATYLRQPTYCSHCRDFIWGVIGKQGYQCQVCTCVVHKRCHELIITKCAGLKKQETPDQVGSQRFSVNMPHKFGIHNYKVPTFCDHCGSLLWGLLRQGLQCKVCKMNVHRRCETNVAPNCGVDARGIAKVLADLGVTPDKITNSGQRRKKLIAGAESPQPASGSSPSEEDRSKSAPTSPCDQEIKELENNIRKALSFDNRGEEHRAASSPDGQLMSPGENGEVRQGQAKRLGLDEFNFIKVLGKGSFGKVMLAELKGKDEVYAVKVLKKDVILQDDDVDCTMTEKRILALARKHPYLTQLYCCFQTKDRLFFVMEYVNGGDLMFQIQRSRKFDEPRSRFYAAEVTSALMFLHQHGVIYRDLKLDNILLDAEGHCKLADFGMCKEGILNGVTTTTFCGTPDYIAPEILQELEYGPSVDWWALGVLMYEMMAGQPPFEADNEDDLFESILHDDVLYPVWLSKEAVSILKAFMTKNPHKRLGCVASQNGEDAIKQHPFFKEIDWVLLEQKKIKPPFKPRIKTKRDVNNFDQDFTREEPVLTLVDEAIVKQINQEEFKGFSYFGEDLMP

[18] = test system: HDAC5; details: cited from earlier work
[19] = 75 mg·kg^-1·d^-1 bid, oral, 18 days

Compound: O=C(/C=C/c1cccc(S(=O)(=O)Nc2ccccc2)c1)NO [Belinostat]
t1/2 [1]: 1.6 h

Compound: CC(C)C[C@H](NC(=O)[C@H](Cc1ccccc1)NC(=O)c1cnccn1)B(O)O [PS341]
body weight versus control [2]: no significant weight loss
body weight versus control [3]: no significant weight loss

Compound: Cc1[nH]c2ccccc2c1CCNCc1ccc(/C=C/C(=O)NO)cc1 [Panobinostat]
IC50 ([4]; read-out: IC50 for hERG inhibition): 3100 nM

inhibition at 200 µM [5]: 7.6 ± 8.8%
inhibition at 200 µM [6]: 27.8 ± 9.2%
inhibition at 200 µM [7]: 13.7 ± 1.8%
inhibition at 200 µM [8]: 18.8 ± 7.8%
inhibition at 200 µM [10]: 11.3 ± 5.4%
inhibition at 200 µM [11]: 9.3 ± 6.2%
inhibition at 200 µM [12]: 61.1 ± 3.3%
inhibition at 200 µM [13]: 17.6 ± 9.8%
inhibition at 200 µM [14]: 43.6 ± 0.8%
inhibition at 200 µM [15]: 3.9 ± 2.5%
inhibition at 200 µM [17]: 0.2 ± 5.7%
Compound: O=C(CCCCCCC(=O)Nc1ccccc1)NO [SAHA]
acetylated α-tubulin and acetylated histone H3 levels in tumor tissues [9]: significant enhancement
elimination half-life [16]: short
oral bioavailability [16]: low
serum clearance [16]: high
T/C (%) [2, 19]: 49.40%
body weight versus control [2]: no significant weight loss
T/C (%) [3, 19]: 36.37%
body weight versus control [3]: no significant weight loss

Compound: CCCCc1nc2cc(/C=C/C(=O)NO)ccc2n1CCN(CC)CC [SB939, (2E)-3-{2-butyl-1-[2-(diethylamino)ethyl]-1H-benzimidazol-5-yl}-N-hydroxyacrylamide]
concentration up to which no binding to hERG channels [4]: > 10 µM
